{"source": "paper PMC4465922", "about": "(Nature chemical biology, 2015)", "target": "T1, α2C-adrenergic receptor (α2C-AR) (Homo sapiens, UniProt P18825)", "T1 sequence (P18825 1-462)": "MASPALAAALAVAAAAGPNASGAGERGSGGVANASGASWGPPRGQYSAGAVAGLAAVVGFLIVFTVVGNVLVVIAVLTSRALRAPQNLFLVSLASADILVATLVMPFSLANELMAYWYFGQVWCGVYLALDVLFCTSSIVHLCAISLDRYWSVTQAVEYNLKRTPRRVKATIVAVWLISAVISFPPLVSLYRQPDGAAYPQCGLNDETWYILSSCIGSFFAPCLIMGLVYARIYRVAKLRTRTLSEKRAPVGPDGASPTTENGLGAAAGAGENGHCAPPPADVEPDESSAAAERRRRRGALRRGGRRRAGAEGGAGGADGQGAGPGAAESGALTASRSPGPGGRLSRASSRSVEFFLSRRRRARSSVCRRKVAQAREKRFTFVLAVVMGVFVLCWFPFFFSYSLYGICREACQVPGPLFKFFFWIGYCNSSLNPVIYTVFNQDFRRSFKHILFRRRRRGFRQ", "assay": "[3H]NE competition radioligand binding on HEK293T membranes", "assay_type": "cell-based", "data": [{"smiles": "NC[C@H](O)c1ccc(O)c(O)c1", "note": "[NE, L-(–)-norepinephrine]", "values": [{"measurement": "EC50", "result": "1.2 ± 0.4", "unit": "nM"}]}]}
